# Data as given in the NIST ThermoML archive (doi:10.1016/j.fluid.2013.01.017).
# Numbers after ± are expanded uncertainties.
# Details: Liquid, Closed cell (Static) method
structure (smiles),measurement,setting,value
FC(F)(F)C(F)(F)C(F)(F)C(F)(F)C(F)(F)C(F)(F)C(F)(F)C(F)(F)F [octadecafluorooctane],vapor or sublimation pressure,308.45 K,6.1 ± 12 kPa
same,vapor or sublimation pressure,318.42 K,10.1 ± 12 kPa
same,vapor or sublimation pressure,323.48 K,12.8 ± 12 kPa
same,vapor or sublimation pressure,328.48 K,16 ± 12 kPa
same,vapor or sublimation pressure,338.43 K,24.3 ± 12 kPa
